Test results from patent US20220233556A1, “COMPOSITIONS AND METHODS FOR TREATING OPHTHALMIC CONDITIONS” (Medicon Pharmaceuticals, Inc., priority 2017, published 2022).

How the values were obtained:
corneal sensitivity = experiment: Corneal touch threshold (CTT) assay, Cochet-Bonnet aesthesiometer; format: in vivo, rabbits; conditions: commercially available form, one eye drop
Description: FIGS. 10A and 10B illustrate the ocular analgesic effect of PS. FIG. 10A: One drop of PS 0.5%, vehicle, or lidocaine was applied to one eye of rabbits (n=4/group) and the corneal touch threshold (CTT) was determined using an Eshesiometer. Vehicle had no effect on CTT (not shown; overlaps with the 0 value horizontal line). Values=mean±SEM. FIG. 10B: PS 0.5% in formulations differing in pH as indicated produced different analgesic responses in rabbits. The areas under each curve (AUC), indicted in the figure, that quantify these responses vary by as much as >5 fold. Values are the average of 2; all were within 11% of each other.
FIGS. 11A and 11B illustrates the effect of various concentrations of PS on corneal sensitivity determined by the corneal touch threshold (CTT) assay. The CTT score is expressed as length of filament. Measurements were performed at the indicated time points after a single application of PS as an eye drop. Rabbits with normal or dry eyes were studied (n=6 eyes per group). Dry eyes were induced by Concanavalin A injection as described in the text. The % PS content in each study is shown. The numbers in parentheses indicate the corresponding value of the area under the curve. Values=mean±SEM.
FIGS. 12A and 12B illustrate the effect of various drugs on corneal sensitivity determined by the corneal touch threshold (CTT) assay described herein. Each drug was used in its commercially available form; one eye drop of each was applied. The numbers in parentheses indicate the corresponding value of the area under the curve. Values=mean±SEM.
The analgesic effect of PS was examined on the surface of the eye by determining the corneal touch threshold (CTT) using the Luneau Cochet-Bonnet Aesthesiometer (Western Ophthalmics, Lynwood, Wash.) an adjustable nylon monofilament with a defined diameter, which is applied in different lengths to the center of the cornea.
In this embodiment, the composition of the PS preparation was: 0.5% PS, 18% (2-hydroxypropyl)-β-cyclodextrin (HP-β-CD), 1-4% Tween 80. Preparation Method: HP-β-CD was dissolved in purified water maintained in a 50° C. water bath. PS was added into this solution and kept at 50° C. overnight with stirring at 500 rpm until PS was fully dissolved. Tween 80 was added into the PS HP-β-CD solution, which was then centrifuged at 3000 rpm for 10 min to remove undissolved particles. The supernatant was collected and pH was adjusted to the desired value using a NaOH solution. The analgesic effect of PS was examined as above.
The effect of PS and other compounds on corneal sensitivity was determined in rabbits with normal or dry eyes using the CTT assay as above; DED was induced by Concanavalin A as previously described. The CTT score, expressed as filament length in mm, of normal eyes was 5.56±0.11 mm (mean±SEM for this and subsequent values) and in dry eyes 4.17±0.12 mm; the difference between the two is statistically significant (p<0.0001).

Con A-induced dry eye = Con A-induced dry eye disease (DED) in rabbits: TBUT, tear osmolarity, STT, tear lactoferrin; format: in vivo, New Zealand White (NZW) rabbits; conditions: 1 week of treatment, comparison with ophthalmic NSAIDs (FIG. 5)
Description: Con A was injected under ultrasound guidance into all the lacrimal glands and the success of the injection was verified by a post-injection ultrasound image (see FIG. 1 and FIG. 2). […] This variation explains why the blind injections recommended in the original method are often unsuccessful. This was confirmed by mixing the Con A solution with methylene blue and tracking its course after injection. In about ⅓ of the cases, Con A ended up outside the gland.
Four parameters of efficacy were evaluated instead of the usual one or two. They include (a) the tear break up time (TBUT), determined using 0.2% fluorescein over the eye and recording the time taken to develop black dots, lines or obvious disruption of the fluorescein film; (b) tear osmolarity, measured using TearLab Osmolarity Test and following the manufacturer's instructions (TearLab Corp., San Diego, Calif.); (3) Schirmer tear test (STT), determined using Schirmer strips (EagleVision, Denville, N.J.) inserted between the cornea and the palpebral conjunctiva at the mid-point of the lower lid and measuring the length of moistened strip at 5 min; and (4) tear lactoferrin levels measured by ELISA kit (MyBiosource, San Diego, Calif.) following the instructions of the manufacturer. All four have been used in clinical practice and correlate with the clinical activity of the disease. The STT is the least reliable and, as result, it is clinically used less than half as frequently as TBUT.
The injections of Con A to the lacrimal glands were repeated weekly as needed. When longer than a 1-week periods of study are needed, repeat injections prolong dry eye for at least 3 weeks, making the originally acute model chronic.
PS Suppresses Con A—Induced Dry Eye in Rabbits. The effect of PS on dry eye was determined in New Zealand White (NZW) rabbits, 2-3 kg (Charles River Labs, Waltham, Mass.). These rabbits were housed singly in rooms with strict temperature (70±5° F.) and humidity (45±5%) control and acclimated for at least 2 weeks prior to induction of dry eye by injection of Con A as above. NZW rabbits with Con A-induced dry eye (three sets of injections) were treated with PS formulated as nanoparticles and administered topically as eye drops 3×/day for 21 days, starting on the day of Con A injection. […] Similar results were obtained on days 5 and 14 (data not shown). […]
The efficacy of lower concentrations of PS. The efficacy of lower concentrations of PS, 0.1% and 0.2% in DED, was also evaluated. The same animal model (rabbits with Concanavalin A-induced DED) was used. The same methodology described herein was followed, except that PS was administered as two eye drops per eye (˜25 μL each) four times a day. PS was formulated in: 10% (2-hydroxypropyl)-β-cyclodextrin, 4% Tween 80, 2.5% Vitamin E TPGS, 1.4% polyvinyl alcohol (13,000-26,000 molecular weight), 0.001% polyquad, as described herein. The Table below summarizes the corresponding findings: […]

PGE2 = PGE2 levels in tears and cornea of rabbits (ELISA); format: in vivo; conditions: rabbits with Con A-induced DED, administered once topically, 1 h later
Description: FIGS. 9A and 9B illustrate that PS preserves the levels of PGE2 in tears and the cornea. In FIG. 9A, PGE2 levels were determined by ELISA in tears collected on day 7 from naïve rabbits and rabbits with Con A-induced DED treated for 1 week with vehicle or PS. In FIG. 9B, PGE2 levels were further examined. Upper panel: PGE2 levels in the tears of naïve rabbits and rabbits with Con A-induced DED treated for 1 h with PS or ketorolac as in Methods. Lower panel: PGE2 levels in the corneal tissue of naïve rabbits and rabbits with Con A-induced DED treated for 1 week with vehicle or PS or ketorolac or diclofenac. n=8 eyes/group. Values=mean±SEM.
It was determined that the levels of PGE2 in rabbit tears in three groups of rabbits, naïve and those with Con A-induced DED that were treated for 1 week either with PS or vehicle.
In an acute experiment, administered once topically to the eyes of four groups of rabbits with Con A-induced DED was one of the following: vehicle, PS, ketorolac or diclofenac; the latter two are NSAIDs used for the treatment of ocular inflammation and pain. It was determined that the levels of PGE2 in the cornea of these rabbits obtained 1 h later as well as in the corneas of naïve rabbits.

MMPs = experiment: MMP activity in the cornea of rabbits; format: in vivo; conditions: naïve rabbits, topical, 1 h
Description: FIGS. 8A and 8B illustrate that PS suppresses the levels and activity of MMPs. In FIG. 8A, the human conjunctival cells were treated with PS at 1×IC50 (TNF-α was added to the culture medium at a concentration of 10 ng/ml 2 h after PS. The levels of MMP-1 in the culture medium were determined by ELISA as in Methods (n=3). Values=mean±SEM. In FIG. 8B, two groups of rabbits with Con A-induced DED were treated with vehicle or PS for 1 week as in Methods. Naïve rabbits served as controls. MMP-9 levels in the ILG (top) and the aqueous humor (middle) were determined by ELISA. MMP activity was determined in the cornea of naïve and PS- or ketorolac-treated rabbits with Con A-induced DED as previously. n=8 eyes/group. Values=mean±SEM.
In an acute experiment, naïve rabbits were treated with either PS or ketorolac (both administered topically) for 1 h and determined the activity of MMP in the cornea. This assay determines the activity of MMPs collectively in a given tissue.

[1] = Ocular PK study of PS nanoparticles (mPEG-PLA), topical eye drops; format: in vivo, New Zealand white rabbits; set-up: AUC(0-t) / AUC0-16h, cornea / AUC0-16h, conjunctiva: concentration or dose not given beside the values; conditions: PS and its metabolites
Description: Composition: ˜3.0-3.5% PS, 96.5˜97% methoxy poly(ethylene glycol)-poly(lactide) (mPEG-PLA).
Preparation Method: Oil phase: 150 mg of PS and 1 g of PEG-PLA (Akina, Inc) were dissolved in 20 mL dichloromethane (DCM). Water phase: 365 mg of sodium cholate were dissolved in 60 ml of purified water. 5 mL of the oil phase was gently added into 15 mL of the water phase in a 50 mL Eppendorf conical tube. To create an emulsion, we used robe sonication for 2 min at 75% output (Branson 150, Fisher Scientific™, USA); the watt output was 12-13. The emulsion was transferred into a 100 mL beaker and stirred overnight at 600 rpm in a chemical hood until the DCM was fully evaporated. This was followed by centrifugation at 14,000 rpm for 1 h (Dupont, RC-5C). Then, the supernatant was transferred to another tube into which 3 mL of PBS were added to resuspend the nanoparticles. The nanoparticle solution was centrifuged for 6-7 seconds to remove aggregates. This supernatant was the final preparation.
Ocular PK study: PS formulated in nanoparticles as above was administered topically as eye drops to New Zealand white rabbits. The biodistribution of PS in ocular tissues at the indicated time points post administration was determined by HPLC.

[2] = Rabbit ocular PK study of PS emulsion (2% PS); format: in vivo, New Zealand rabbits; conditions: 2% PS emulsion, three 25 μL eye drops; PS and its metabolites
Description: A formulation includes 2% PS; 5% Propylene glycol, 10% Mineral oil, 4% Tween 60, 4% Tween 80, 10% (2-hydroxypropyl)-β-cyclodextrin (HP-β-CD). Preparation method (2 mL scale): Oil phase: weight PS into glass vial, add propylene glycol, stir at 50° C. to obtain a clear solution. Then add mineral oil, stir to obtain a clear solution. Water phase: Dissolve HP-β-CD, […] and Tween 80 into water. Add water phase into oil phase, probe-sonicate for 5 sec, 8 times, with 5 sec intervals. Resultant emulsion is filtrated through 0.22 μm filter.
Rabbit ocular pharmacokinetic (PK) study: PS was administered to New Zealand rabbits topically to the eye; as three 25 μL eye drops, 5 min apart. Rabbits were euthanized at eight specified time points between 0.25 to 16 h, ocular tissues were dissected and PS was extracted with acetonitrile and its tissue levels as well as those of its metabolites were determined by HPLC as described (Xie G. et al., Br J Pharmacol 165:2′52-2166; 2012).

SMILES	effect on corneal sensitivity (CTT), dry eyes (corneal sensitivity)	effect on corneal sensitivity (CTT), normal eyes (corneal sensitivity)	Cmax, conjunctiva [1]	Cmax, cornea [1]	Cmax, aqueous humor [2]	Cmax, conjunctiva [2]	Cmax, cornea [2]	other results
CS(=O)(=O)c1cccc(C[C@H](NC(=O)c2c(Cl)cc3c(c2Cl)CCN(C(=O)c2ccc4ccoc4c2)C3)C(=O)O)c1 [Lifitegrast, lifitegrast, reference compound]	lack any ocular analgesic effect	lack any ocular analgesic effect						
Nc1c(CC(=O)O)cccc1C(=O)c1ccc(Br)cc1 [bromfenac, reference compound]	no analgesic effect	display analgesic efficacy						
O=C(O)Cc1ccccc1Nc1c(Cl)cccc1Cl [diclofenac, reference compound]								STT (Con A-induced dry eye): failed to improve; TBUT (Con A-induced dry eye): failed to improve; osmolarity (Con A-induced dry eye): failed to improve; PGE2 levels in the cornea (PGE2): suppressed nearly completely
O=C(c1ccccc1)c1ccc2n1CCC2C(=O)O (centres unmarked) [ketorolac, reference compound]	no analgesic effect	display analgesic efficacy						suppression of the activity of MMPs in the cornea (MMPs): failed to affect; STT (Con A-induced dry eye): failed to improve; TBUT (Con A-induced dry eye): failed to improve; osmolarity (Con A-induced dry eye): failed to improve; PGE2 levels in the cornea (PGE2): suppressed nearly completely
CSc1ccc(/C=C2/C(C)=C(CC(=O)O)c3cc(F)ccc32)cc1 [sulindac sulfide]			0 µM	0.6 µM	2.0 μm	0.0 μm	0.0 μm	
CC1=C(CC(=O)O)c2cc(F)ccc2/C1=C\c1ccc(S(C)(=O)=O)cc1 [sulindac sulfone]			1.6 µM	1.3 µM	0.0 μm	0.8 μm	4.0 μm	AUC0-16h, conjunctiva [1]: 7.3 µM·h; AUC0-16h, cornea [1]: 10 µM·h; Tmax, cornea [1]: 4 h; AUC0-16h, conjunctiva [2]: 3.2 µM·h; AUC0-16h, cornea [2]: 24.4 µM·h; Tmax, aqueous humor [2]: 0.0 h; Tmax, conjunctiva [2]: 2.0 h; Tmax, cornea [2]: 4.0 h
CC1=C(CC(=O)O)c2cc(F)ccc2/C1=C\c1ccc([S+](C)[O-])cc1 (centres unmarked) [sulindac, reference compound]			3.8 µM	3.6 µM	1.0 μm	4.2 μm	8.7 μm	
